Source: ChEMBL document CHEMBL1139030, “Inhibition of jack bean urease by organobismuth compounds” (Bioorg Med Chem Lett, 2006)
Calls of active or inactive are those of the source. No cut-off for these calls is given here.

Target: Urease (Canavalia ensiformis) (UniProt P07374)
Assay: Inhibitory activity against jack bean urease

UniProt P07374, sequence (P07374 whole entry, looked up): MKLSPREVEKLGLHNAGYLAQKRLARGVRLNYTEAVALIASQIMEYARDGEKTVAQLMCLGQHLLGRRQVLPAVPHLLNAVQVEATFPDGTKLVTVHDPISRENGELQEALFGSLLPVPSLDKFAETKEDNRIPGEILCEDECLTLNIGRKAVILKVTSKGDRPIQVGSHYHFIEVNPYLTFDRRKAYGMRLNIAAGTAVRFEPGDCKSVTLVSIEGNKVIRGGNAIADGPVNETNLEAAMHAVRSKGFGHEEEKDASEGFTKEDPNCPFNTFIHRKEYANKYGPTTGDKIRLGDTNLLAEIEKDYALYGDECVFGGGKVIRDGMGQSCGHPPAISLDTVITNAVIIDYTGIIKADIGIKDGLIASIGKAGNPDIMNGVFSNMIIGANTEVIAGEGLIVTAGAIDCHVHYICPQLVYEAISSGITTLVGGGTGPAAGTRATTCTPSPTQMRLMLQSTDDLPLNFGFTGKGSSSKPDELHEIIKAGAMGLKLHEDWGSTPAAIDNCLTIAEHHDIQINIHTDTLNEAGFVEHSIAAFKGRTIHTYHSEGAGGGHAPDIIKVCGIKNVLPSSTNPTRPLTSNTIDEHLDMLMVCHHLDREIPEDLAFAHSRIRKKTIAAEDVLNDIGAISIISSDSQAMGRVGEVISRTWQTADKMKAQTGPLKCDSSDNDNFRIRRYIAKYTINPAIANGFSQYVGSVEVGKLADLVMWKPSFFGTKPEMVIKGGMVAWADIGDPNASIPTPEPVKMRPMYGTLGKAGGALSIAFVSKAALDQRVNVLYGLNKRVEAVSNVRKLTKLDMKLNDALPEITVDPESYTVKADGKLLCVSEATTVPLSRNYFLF

| Activity | Substance |
| --- | --- |
| Active | difluorotris[4-(trifluoromethyl)phenyl]bismuthane |
| Active | tris(4-fluorophenyl)bismuthine |
| Active | tris(4-fluorophenyl)bismuth dichloride |
| Active | 4-[bis(4-cyanophenyl)bismuthanyl]benzonitrile |
| Active | ethyl 4-{bis[4-(ethoxycarbonyl)phenyl]bismuthanyl}benzoate |
| Active | difluorotris(4-methylphenyl)bismuthane |
| Active | difluorotris(4-fluorophenyl)bismuthane |
| Active | 4-[bis(4-cyanophenyl)difluorobismuthanyl]benzonitrile |
| Active | tris(4-(trifluoromethyl)phenyl)bismuthine |
| Active | trip-tolylbismuthine |
| Active | [sequence] |
| Active | difluorotris(2,4,6-trimethylphenyl)bismuthane |
| Active | ethyl 4-{bis[4-(ethoxycarbonyl)phenyl]difluorobismuthanyl}benzoate |

| Substance | Activity |
| --- | --- |
| TRIPHENYLBISMUTHINE | Active |
